Key:
[1] = test system: 3H-DA uptake in striatal synaptosomes; experiment: 3H-DA uptake in striatal synaptosomes in vitro; type: biochemical, rats; conditions: rat striatal synaptosomes, 12.5 nM 3H-DA, 37° C., pH 7.4
Experimental: ^3 H-DA uptake in striatal synaptosomes in vitro
0.32 M sucrose containing 1 mM Nialamide
Millipore filters (HAWPO 2500, 0.45μ)
3,4-dihydroxyphenylethylamine[ethyl-1-^3 H(N)]=^3 H-DA spc. act. app. 15 Ci/mmol, New England Nuclear Thomas Tissue Grinder, clearance 0.004-0.006 inch.
Rats are killed by a blow to their head, exsanguinated and their brains removed. The brain is placed on a precooled glassplate, and the two corpura striata are dissected out and gently homogenized in 40 volumes of ice cold 0.32 M sucrose containing 1 mM of nialamide using a hand homogenizer with teflon pestle. The P2 -fraction (synaptosomal fraction) is obtained by centrifugation (600 g, 10 min., 25000 g, 55 min. 4° C.) and suspended in 40 volumes of a modified Krebs-Ringer-phosphate buffer, pH 7.4. To 200 μl of the synaptosomal fraction on ice are added 3700 μl modified Krebs-Ringer-phosphate buffer--containing test compounds. After a preincubation at 37° C. for 5 min. […] The incubation is terminated by filtering the samples under vacuum through Millipore filters with a wash of 5 ml buffer containing 10 μM of unlabelled DA. After solubilizing the filters in 1 ml of cellosolve the radioactivity is determined by liquid scintillation counting after the addition of 10 ml of Insta-Gel. The unspecific binding of ^3 H-DA is determined by incubating control samples on ice instead of at 37° C.
All experiments are performed in triplicate.
The mean of all control samples and ice samples are calculated. […] The IC50-values are determined as the concentrations, at which the uptake are 50 percent of the uptake in control samples-uptake in ice samples.

amphetamine = experiment: Amphetamine antagonism in rats; type: in vivo; conditions: rats, p.o., amphetamine 10 mg/kg base i.v.; for ED50: Rattus norvegicus, po, read-out: Amphetamine antag. ED50 p.o.
Experimental: Amphetamine antagonism (ED50 mg/kg i.p.)
(§1) Perspex observation cages without bottom and lid, consisting of 5 sections each measuring 12×25×30 cm.
The test substance is given p.o. in a reasonable dose based on the determined LD50. Two or 24 hours later an intravaneous injection of amphetamine sulphate 13.6 mg/kg (10 mg/kg amphetamine base) is given, after which the rats are placed individually in the cages. The cages are placed on white corrugated paper. Five rats are used for each dose level. Observations are made after 55 minutes and 65 minutes-observation time: 1 minute. The animals are observed for stereotypy (movements of the head, compulsive gnawing). […] If the compound has full antagonistic effect another group of rats is used at a lower dose. […] The result is stated as fractions: 0/5, 1/5, 2/5, 3/5, 4/5 and 5/5, where 0, 1, 2, 3, 4 and 5 indicate the number of rats which have not shown stereotypy at the dose in question. The results are calculated as ED50 in mg/kg.

[2] = Mouse grid shock (analgesia); type: in vivo; conditions: mice, minimal effective dose, in mg/kg
Experimental: The mouse grid consists of a perspex cage with wire grid bottom and a perspex lid, on which is placed a microphone sensitive to the frequency of a mouse squeak. A stimulator with motordriven potentiometer applies a sequence of square wave impulses of continuously increasing milliamperage to the grid. Frequency of impulses 20 cycles/sec., duration 5 msec. Milliamperage is recorded on a digital amperemeter connected to the stimulator. Activation of the microphone by a mouse-squeak cuts off the current and the final milliamperage appears on the meter.
Five mice are used for each dose level. Each mouse serves as its own control.
Prior to the administration of test substance the animals are placed on the grid one at a time, and the pain threshold is determined by increasing the current intensity until the mouse squeaks. The pain threshold may be read on the milliamperemeter. Fifteen minutes and 30 minutes after administration of test substance the mice are tested again and the pain thresholds recorded.
Analgesic effect is present, when the pain threshold is increased over the pre-dosing value (control value). The results are stated as % increase in pain threshold calculated on the basis of the control value.
The registration can also be done as an on-line procedure. In this case the punching instruction and punching cards will be provided automatically and the results will be registered as a minimal effective dose (MED) determined after van der Waerdens X-test.

in vivo [3] = conditions: iv
in vivo [4] = experiment: in vivo; set-up: species or system rats; conditions: for Ratio catalep./Amphet.: catalepsy ED50 / amphetamine antagonism ED50; for ED50: rat, in vivo, po, read-out: Catalep. (catalepsy wire mesh, rat, max, ED50)
Experimental: A vertical wire netting (50 cm×49 cm). The meshes (openings) of the netting are square (1 cm×1 cm). The wire diameter is 2 mm.
The animals are labeled and used in groups of five. The test substance is administered orally (p.o) at 4 dose levels selected from the fixed dose scale.
The animals are placed in the middle of the vertical wire netting 60, 120, 180, 240, 300 and 360 minutes after administration of the test compound. The animals are considered cataleptic when they remain immobile during a period of 15 seconds.
This cataleptic reaction is designated +. If the rats are "atonic" and passively slide down the wire mesh they are considered not cataleptic. If the animals climb up and down the wire mesh they are nor cataleptic.
In both situations the designation--is used.

methylphenidate = experiment: Methylphenidate antagonism in mice; type: in vivo; conditions: for ED50: Mus musculus, ip, 2 h, read-out: MePh antag. ED50 2 hr i.p., mice, test substance i.p., 2 hr before methylphenidate 60 mg/kg s.c.
Experimental: Methylphenidate antagonism (ED50 mg/kg i.p.)
as §1
3×2 mice are used for each dose level. Two or 24 hours after injection of test substance, methylphenidate, 60 mg/kg, is injected s.c. After administration of methylphenidate the mice are placed in the observation cages, 2 in each cage, where they remain for exactly 1 hour. The cages were placed on corrugated paper, the corrugations facing upwards. It is examined whether the mice have been biting the corrugated paper or not. […] If one or more of the control pairs have not been biting, the test has to be repeated on a new set of mice.
The result is stated in fractions: 0/3, 1/3, 2/3 and 3/3 where 0, 1, 2 and 3 are the number of pairs which have not been biting on receipt of the dose in question.

[5] = Pharmacological animal tests, general statements on activity; conditions: in vivo
Experimental: After recrystallisation from 500 milliliters of methanol 18.5 grams of the (-)-isomer of Lu 13-092, D-(-)-tartrate were obtained, melting at 207°-209° C. […] The novel indanes of Formula I were tested pharmacologically in standard and reliable animal tests.

[6] = rats, p.o., strongest effect within first 6 hours

| Structure (SMILES) | IC50 [1] [nM] | ED50 (amphetamine) [mg/kg] | MED Grid Shock [2] | LD50 (in vivo [3]) [mg/kg] | Ratio catalep./Amphet. (in vivo [4]) | ED50 (in vivo [4]; [6]) [mg/kg] | ED50 (methylphenidate) [mg/kg] | also measured |
| --- | --- | --- | --- | --- | --- | --- | --- | --- |
| OCC(O)CN1CCN(C2CC(c3ccc(Cl)c(Cl)c3)c3ccccc32)CC1 (single isomer, unassigned) [Lu 18-128] | 12 | – | – | – | – | – | – | – |
| OCC(O)CN1CCN(C2CC(c3ccc(F)cc3)c3ccc(F)cc32)CC1 (single isomer, unassigned) [Lu 17-066] | 27 | 18 | 2.5 | > 160 | 8.9 | > 160 | 1.6 | – |
| OCCN1CCN([C@@H]2C[C@@H](c3ccc(Cl)c(Cl)c3)c3ccccc32)CC1 (relative stereo) [Lu 17-133] | 3 | – | – | – | – | – | – | – |
| OCCCCN1CCN([C@@H]2C[C@@H](c3ccc(Cl)c(Cl)c3)c3ccccc32)CC1 (relative stereo) [Lu 18-121] | 11 | – | – | – | – | – | – | – |
| OCCN1CCN([C@@H]2C[C@@H](c3ccc(F)cc3)c3ccc(Cl)cc32)CC1 (relative stereo) [Lu 14-068] | 84 | 1.6 | 0.31 | 94 | 0.9 | 1.5 | 1.3 | – |
| OCCCN1CCN([C@@H]2C[C@H](c3ccc(Cl)c(Cl)c3)c3ccccc32)CC1 (relative stereo) [Lu 18-082] | 6 | – | – | – | – | – | – | – |
| OCCCN1CCN([C@@H]2C[C@@H](c3ccc(F)cc3)c3ccc(F)cc32)CC1 (relative stereo) [Lu 14-036] | 73 | 2.3 | 5 | 129 | 1.6 | 3.7 | 1.6 | – |
| CN1CCN([C@@H]2C[C@@H](c3ccccc3)c3ccc(F)cc32)CC1 (relative stereo) [Lu 14-067] | 68 | – | 5 | – | – | – | > 40 | – |
| OCCCCN1CCN([C@@H]2C[C@H](c3ccc(Cl)c(Cl)c3)c3ccccc32)CC1 (relative stereo) [Lu 18-120] | 5 | – | – | – | – | – | – | – |
| OCCCCN1CCN([C@@H]2C[C@@H](c3ccc(F)cc3)c3ccc(F)cc32)CC1 (relative stereo) [Lu 18-080] | 25 | 3.5 | < 1.3 | 80 | 6.2 | 21.8 | 2.9 | – |
| OCCCN1CCN([C@@H]2C[C@@H](c3ccc(Cl)c(Cl)c3)c3ccccc32)CC1 (relative stereo) [Lu 18-081] | 15 | – | – | – | – | – | – | – |
| OCCCN1CCN([C@@H]2C[C@H](c3ccc(F)cc3)c3ccc(F)cc32)CC1 (relative stereo) [Lu 14-048] | 46 | – | – | – | – | – | – | – |
| CN1CCN([C@@H]2C[C@@H](c3ccc(Cl)c(Cl)c3)c3ccccc32)CC1 (relative stereo) [Lu 17-110] | 11 | – | – | – | – | – | – | – |
| OCCN1CCN([C@@H]2C[C@H](c3ccc(Cl)c(Cl)c3)c3ccccc32)CC1 (relative stereo) [Lu 17-132] | 12 | – | – | – | – | – | – | – |
| CC(C)N1CCN(C2CC(c3ccc(F)cc3)c3ccc(F)cc32)CC1 (stereo not shown) [Lu 17-062, 1-Isopropyl-4-(3-(4'-fluorophenyl)-6-fluoro-1-indanyl)piperazine] | – | 10 | 5 | 113 | 1.4 | 14 | 1.3 | neuroleptic activity [5]: neuroleptical active isomer |
| CN1CCN([C@@H]2C[C@H](c3ccc(Cl)c(Cl)c3)c3ccccc32)CC1 (relative stereo) [Lu 17-109] | 4 | – | – | – | – | – | – | – |
| CC(O)CN1CCN(C2CC(c3ccc(F)cc3)c3ccc(F)cc32)CC1 (stereo not shown) [Lu 17-144, 1-(2-hydroxy-1-propyl)-4-(3-(4'-fluorophenyl)-6-fluoro-1-indanyl)piperazine] | 18 | – | – | – | – | – | – | – |
| OCC(O)CN1CCN(C2CC(c3ccc(Cl)c(Cl)c3)c3ccccc32)CC1 (single isomer, unassigned) [Lu 18-129] | 14 | – | – | – | – | – | – | – |
| OCC(O)CN1CCN(C2CC(c3ccc(F)cc3)c3ccc(F)cc32)CC1 (single isomer, unassigned) [Lu 17-079] | 12 | – | – | – | – | – | – | – |
| CN1CCN([C@@H]2C[C@H](c3ccc(F)cc3)c3ccc(Cl)cc32)CC1 (relative stereo) [Lu 14-069] | – | > 20 | 5 | 65 | – | > 40 | 5.7 | – |
| CSc1ccc2c(c1)C(N1CCN(CCCO)CC1)CC2c1ccc(F)cc1 (stereo not shown) [Lu 17-068] | – | 1.8 | 0.31 | 94 | 0.7 | 1.3 | 0.8 | – |
| O[C@H]1CC[C@H](CN2CCN(C3CC(c4ccc(F)cc4)c4ccc(F)cc43)CC2)CC1 (relative stereo) [Lu 17-059] | – | 28 | 5 | 94 | > 1.4 | > 40 | 4.3 | – |
| CN1CCN(C2CC(c3ccc(F)cc3)c3ccc(F)cc32)CC1 (single isomer, unassigned; (-)) [Lu 17-152, (-) 1-Methyl-4-(3-(4'-fluorophenyl)-6-fluoro-1-indanyl)piperazine] | 88 | – | 5 | – | – | – | – | Amphetamine antag. ED50 p.o. (amphetamine): > 80 mg/kg; Catalep. (catalepsy wire mesh, rat, max, ED50) (in vivo [4]; [6]): > 320 mg/kg; MePh antag. ED50 2 hr i.p. (methylphenidate; mice, test substance i.p., 2 hr before methylphenidate 60 mg/kg s.c., 120 min): 17 mg/kg |
| OCCN1CCN([C@@H]2C[C@@H](c3ccccc3)c3ccc(C(F)(F)F)cc32)CC1 (relative stereo) [Lu 18-089] | – | 5 | 2.5 | 69 | 0.5 | 2.7 | 2.2 | – |
| CC(O)CN1CCN(C2CC(c3ccc(F)cc3)c3ccc(F)cc32)CC1 (stereo not shown) [Lu 17-143, 1-(2-hydroxy-1-propyl)-4-(3-(4'-fluorophenyl)-6-fluoro-1-indanyl)piperazine] | – | 5.4 | < 1.3 | 130 | 3.1 | 16.6 | 1.2 | – |

— patent US4443448A, “Indane derivatives, pharmaceutical compositions thereof and method of preparation” (priority 1980, dated 1984)
